# Literature values, collected in US20230285350A1, “FORMULATIONS FOR TETRACAINE AND LIDOCAINE” (LYOTIP, INC., priority 2020, published 2023).
smiles,measurement,setting,value
CCCCNc1ccc(C(=O)OCCN(C)C)cc1 [Tetracaine],Onset of effects,used in the eyes,≤ 30 s
same,duration of effects,used in the eyes,less than 15 minutes
"CCN(CC)CC(=O)Nc1c(C)cccc1C [lidocaine, Lidocaine]",duration of effect,used as an injectable,half an hour to three hours
CNC[C@H](O)c1ccc(O)c(O)c1 [Epinephrine],prolongation of numbing effect and motor block effect of the anesthetic,used with tetracaine,up to an hour
